In patent publication US12440531B2, “Composition for use in improving endothelial function by enhancing flow mediated dilation” (SOCIETE DES PRODUITS NESTLE S.A., priority 2019, dated 2025):

Assays:
L. johnsonii esterase = experiment: Substrate specificity with 4-nitrophenyl derivatives; format: biochemical, Lactobacillus johnsonii; details: substrate 0.2 mM, sodium phosphate buffer pH 6.0, 37° C., 10 min, absorbance 410 nm
Experimental: The substrate specificity of L. johnsonii esterase was studied using different 4-nitrophenyl derivatives. […] The reactions were carried out in sodium phosphate buffer pH 6.0 at 37° C. for 10 min. The substrates were used at concentration of 0.2 mM and enzyme at 0.01 U/mg substrate. The measures were monitored each 30 seconds. The absorbance was set at 410 nm.

human vascular function = details: pure 5-CQA at 450 mg and 900 mg, 24 subjects; cited from earlier work

Row | transformation as substrate of L. johnsonii esterase (L. johnsonii esterase) | Structure (SMILES) | effect on human vascular function (human vascular function)
1 | best substrate | CCCC(=O)Oc1ccc([N+](=O)[O-])cc1 [4-nitrophenyl butyrate] | –
2 | no transformation | CCCCCCCCCCCC(=O)Oc1ccc([N+](=O)[O-])cc1 [4-nitrophenyl dodecanoate] | –
3 | – | O=C(/C=C/c1ccc(O)c(O)c1)O[C@@H]1C[C@](O)(C(=O)O)C[C@@H](O)[C@H]1O [Dose 5-CQA, 5-CQA] | did not show a significant effect
